Data on 1 compound can be found in patent publication US10238641B2, “Materials and methods for diagnosis, prevention and/or treatment of stress disorders and conditions associated with A-beta peptide aggregation” (The United States of America as represented by the …, priority 2008, dated 2019).

The test system of data set [1] is fear-induced anxiety in mice. The experiment in a line: Elevated plus maze after fear conditioning (fear-induced anxiety). In kind it is in vivo. How it is done:
Mice were trained for FC. After the retention test, the mice were tested for anxiety levels in the EPM. The number of entries into the open and closed arms and the exploratory behavior of the mice were determined using a video tracking software that measures movement in each section of the EPM.
To determine the effect of cotinine treatment on the levels of anxiety in the mice after re-exposure to a fear memory, we performed the same EPM test but 24 h after fear conditioning training (shock in the chamber) and immediately after re-exposure to the context (chamber), a reminder of the unconditioned aversive stimulus (the electric shock).

The test system of a further data set is ERK1/2. Kind of data set: BDNF-stimulated pERK1/2 in primary cortical neurons, Western blot. Conditions: BDNF 100 ng/ml plus cotinine 10 μM, 1 h. It is filed as cell-based.
In another data set the test system is DARPP-32. Kind of data set: DARPP-32 activity in neurons. It is filed as cell-based. Conditions: neurons from rat brain cells.
For data set [2] the following is noted: in vivo; cited from earlier work.
For another data set, the target named is T1, Aβ1-42 peptide (Homo sapiens, UniProt P05067).
T1 construct: Aβ1-42 peptide was obtained from American Peptide; purchased American Peptide (Sunnyvale, Calif., USA)
T1 sequence (P05067 672-713 limits assumed): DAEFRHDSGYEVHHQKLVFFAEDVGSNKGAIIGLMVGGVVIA
The experiment in a line: AFM analysis of Aβ1-42 fibrillation. In kind it is biochemical. How it is done:
Since the aggregation behavior of Aβ is dependent on the presence of small concentrations of aggregated forms of the peptide, that are present in many commercial samples, we prepared the Aβ solution by first dissolving the peptide in Hexafluoroisopropanol (HFIP), a protocol that produces a starting solution constituted only of Aβ monomers (Chromy et al. (2003)). Lyophillized Aβ1-42 (American peptide) (1 mg) was dissolved in HFIP, evaporated and re-dissolved in 22 μl of dimethyl sulfoxide (DMSO, St. Louis, Mo.). These peptide preparations were then diluted in PBS buffer pH 7.4 alone or PBS plus cotinine to obtain solutions containing 1 mM Aβ1-42 with and without 2 mM cotinine. Then the Aβ1-42 solutions were incubated for 10 days and the formation of oligomers and fibers was examined.
20 μl aliquots of Aβ solutions were deposited on freshly cleaned and dried silicon wafers (approximately 1 mm thick). After waiting for 10 min, non-adsorbed portions of the samples were washed with de-ionized water (2000 μl). The wet surface of the silicon wafer was then dried using gentle flow of air.
The AFM analysis was performed using an AFM apparatus (AFM, βA multimode SPM, Model no. 920-006-101, Vecco) that permits the acquisition of images using a tapping mode approach. This approach allows intermittent contact of the tip with the sample and minimizes the chances of deformation of the peptide samples. The cantilever and the tip were made up of silicon and the cantilever force constant was approximately 20-100 N/m with the resonance frequency between 200-400 khz. The scan rate was between 1.0 to 1.2 Hz. The analysis of fibrils and oligomers was performed using the software NanoScope Control, version 5.30.
To investigate whether cotinine in addition to Aβ oligomerization also affected fibril formation, we used Atomic force miscroscopy (AFM) to analyze Aβ aggregation. The solutions were prepared dissolving Aβ in HFIP and after evaporation, in PBS alone or containing cotinine and incubated at 37° C. for 3 and 10 days.

A further data set relates to nAChRs. In kind it is cell-based, rat.
The test system of a further data set is fear memory in mice. Kind of data set: Contextual fear conditioning, freezing behavior. It is filed as in vivo. How it is done:
Mice (n=8, by condition) were treated with vehicle or cotinine (1 and 5 mg/kg/day) for 8 days and then subjected to Fear conditioning training as described. After 24 hours (h) mice were tested for freezing behavior when re-exposed to the same context (the chamber) every day for […].
To study the effect of cotinine on contextual fear memory, we pretreated mice with vehicle or cotinine at 1 and 5 mg/kg/day for 8 days. After this time, mice were trained for contextual fear conditioning (FC). Briefly, mice were trained to associate the context (the chamber) with an aversive unconditioned stimulus (1 mA foot shock for 2 seconds). After the FC training, the mice were re-exposed to the context every day for 7 consecutive days. The mice were treated daily with vehicle or cotinine at 1 and 5 mg/kg during the FC training and re-exposure to the context. The fear memory of the mice expressed as freezing behavior was assessed each day after re-exposure to the context. The fear memory after 24 h of the FC training is considered a measure of retention of the fear memory. The reduction of fear memory expressed as a reduction in the freezing behavior after the retention trial is evaluated as the extinction of the fear memory.

Data set [3] relates to JNK1/2 phosphorylated (pJNK) at Thr183 and Thr185. The experiment in a line: BDNF-induced pJNK in primary cortical neurons, Western blot. It is filed as cell-based. Conditions: BDNF 100 ng/ml plus cotinine 10 μM, 1 h. The protocol:
After 7 days in vitro, cortical neurons were treated with BDNF (100 ng/ml) alone or BDNF plus cotinine (10 μM) for 1 h. After treatments, cells were lysed and whole cell extracts were analyzed for the active forms of JNK and ERKs, pJNK and pERK1/2 by Western blot.

Another data set has as its target Aβ (Homo sapiens, UniProt P05067). Kind of data set: Binding of cotinine to Aβ in vitro.

Chain of Aβ (P05067 672-713 limits assumed): as above

Take `CN1C(=O)CC[C@H]1c1cccnc1` [cotinine]: the “difference in time in the closed arms, untreated compared with cotinine (EPM after FC)” value was “highly significant” in data set [1] (cotinine 1 mg/kg, p=0.0060) and “highly significant” in data set [1] (cotinine 5 mg/kg, p=0.0111). Moreover, the “time in the open arms, vehicle compared with cotinine (EPM after FC)” value is recorded as “significantly less time in the open arms” in [1] (cotinine 1 mg/kg, p=0.0101) and “no significant differences” in data set [1] (cotinine 5 mg/kg, p=0.0545). Moreover, the “time exploring, vehicle compared with cotinine (EPM after FC)” value in data set [1] (cotinine 1 mg/kg, p=0.0145) is on record as “significantly less time exploring”; in data set [1] (cotinine 5 mg/kg, p=0.0025), “significantly less time exploring”. For the same compound, the “BDNF-stimulated phosphorylation of ERK” value in the data set on ERK1/2 is listed as “did not affect the BDNF-stimulated phosphorylation of ERK”. Further, the “activity of DARPP-32” value in the data set on DARPP-32 is “increases the activity of DARPP-32”. Also, the half-life in data set [2] is 10 to 24 h. For the same compound, the “effect on Aβ aggregation and fibril length (AFM)” value on Aβ1-42 peptide (1 mM Aβ1-42 + 2 mM cotinine, 10 days 37° C.) was “reduced Aβ aggregation and the length of Aβ fibrils”. In addition, on Aβ1-42 peptide (1 mM Aβ1-42 + 2 mM cotinine, 10 days 37° C., n=23, without cotinine 345±42), the “average length of Aβ fibrils” value is recorded as 223±36. On Aβ1-42 peptide (unchanged by presence of cotinine), the “average diameter of the fibers” value is listed as 22-24 nm. The “neuroprotective actions in presence of nAChR antagonists alpha-Bungarotoxin or mecamylamine” value with nAChRs is on record as “not affected”. The “freezing in the retention test versus vehicle” value in the data set with fear memory in mice (cotinine 1 mg/kg/day, 24 h after FC training, p=0.0191) was “significantly lower percentage of freezing”. Moreover, the “freezing in the extinction test versus vehicle” value in the data set on fear memory in mice (cotinine 5 mg/kg, day 6 of re-exposure, p=0.0218) is “significantly lower percentage of freezing”. The “levels of active JNK1/2 (pJNK) induced by BDNF” value in data set [3] is “decreased the levels of the active forms of JNK1/2”. Further, the “binding to Aβ” value on Aβ is recorded as “high affinity”.
